Measurements from patent US6777425B2, “Isoquinoline compounds having antiinfective activity” (Genesoft Pharmaceuticals, Inc., priority 2001, dated 2004).

Experiments:
B. cereus ATCC 11778 = experiment: NCCLS broth microdilution MIC, B. cereus; type: cell-based, Bacillus cereus; conditions: organism A = B. cereus ATCC 11778; for MIC: Bacillus cereus, ATCC11778, read-out: Minimum Inhibitory Concentration (MIC)
Source text: (§1) Compounds according to this invention were screened for their in vitro activities against selected species of bacteria and fungi. […]

C. albicans ATCC 38247 = experiment: Antifungal MIC, C. albicans; type: cell-based, Candida albicans; conditions: organism B = C. albicans ATCC 38247; for MIC: Candida albicans, ATCC38247, read-out: Minimum Inhibitory Concentration (MIC)
Source text: as §1

E. faecalis ATCC 29212 = experiment: NCCLS broth microdilution MIC, E. faecalis; type: cell-based; conditions: organism C = E. faecalis ATCC 29212; for MIC: Enterococcus faecalis, ATCC29212, read-out: Minimum Inhibitory Concentration (MIC)
Source text: as §1

S. aureus ATCC 13709 = experiment: NCCLS broth microdilution MIC, S. aureus (MSSA); type: cell-based, Staphylococcus aureus; conditions: organism E = S. aureus ATCC 13709 (MSSA); for MIC: Staphylococcus aureus, read-out: Minimum Inhibitory Concentration (MIC)
Source text: as §1

S. pneumoniae ATCC 49619 = experiment: NCCLS broth microdilution MIC, S. pneumoniae ATCC 49619; type: cell-based, Streptococcus pneumoniae; conditions: organism H = S. pneumoniae ATCC 49619; for MIC: Streptococcus pneumoniae, ATCC49619, read-out: Minimum Inhibitory Concentration (MIC)
Source text: as §1

[1] = target: target sequence AGTACT, 310 base pair dsDNA restriction fragment of Plasmid A; experiment: Quantitative DNase I footprint titration, AGTACT; type: binding; conditions: 310 bp/A, pH 7.0, 22° C., read-out: Dissociation Constant Kd
[2] = target: target sequence AATTAATCAT, 352 base pair dsDNA restriction fragment of Plasmid B; experiment: Quantitative DNase I footprint titration, […]; type: binding; conditions: 352 bp/B, pH 7.0, 22° C., read-out: Dissociation Constant Kd
E. faecium ATCC 51559 = experiment: NCCLS broth microdilution MIC, E. faecium (VRE); type: cell-based, Enterococcus faecium; conditions: organism D = E. faecium ATCC 51559 (VRE)
Source text: as §1

S. aureus ATCC 27660 = experiment: NCCLS broth microdilution MIC, S. aureus (MRSA); type: cell-based, Staphylococcus aureus; conditions: organism F = S. aureus ATCC 27660 (MRSA)
Source text: as §1

[3] = tested on: S. epidermidis ATCC 12228; experiment: NCCLS broth microdilution MIC, S. epidermidis; type: cell-based, Staphylococcus epidermidis; conditions: organism G = S. epidermidis ATCC 12228
Source text: as §1

S. pneumoniae ATCC 51422 = experiment: NCCLS broth microdilution MIC, S. pneumoniae (PRSP); type: cell-based, Streptococcus pneumoniae; conditions: organism I = S. pneumoniae ATCC 51422 (PRSP)
Source text: as §1

[4] = tested on: methicillin resistant Staphylococcus aureus ATCC 33591; experiment: Murine neutropenic thigh model; type: in vivo; conditions: thigh at 6 hr, neutropenic CF1 mice
Method: The suspension was diluted 1:100 in phosphate buffered saline (pH 7.2) for a final concentration of 10^6 cfu/mL.
Outbred female CF1 mice (approx. 20 gram body weight) were rendered neutropenic by treatment with cyclophosphamide (200 mg/kg body weight, intraperitoneal injection) at 2 and 4 days prior to inoculation. Groups of 5 mice were inoculated with 0.05 mL of the bacteria (approx. 10^6 cfu/mL) into the anterior thigh. Each group was treated intravenously two hours post infection with vehicle (phosphate buffered saline) or test compound. The mice were sacrificed at either 6 or 24 hrs after treatment and thighs were collected aseptically. Each thigh was weighed, placed into sterile saline, and homogenized. The tissue homogenates were diluted appropriately for plating on agar plates. Colony counts were recorded (cfu/gram) and compared to control groups.

[5] = 50 mg/kg intravenously two hours post infection

SMILES	Minimum Inhibitory Concentration (MIC) (B. cereus ATCC 11778)	Minimum Inhibitory Concentration (MIC) (C. albicans ATCC 38247)	Minimum Inhibitory Concentration (MIC) (E. faecalis ATCC 29212)	Minimum Inhibitory Concentration (MIC) (E. faecium ATCC 51559)	Minimum Inhibitory Concentration (MIC) (S. aureus ATCC 13709)	Minimum Inhibitory Concentration (MIC) (S. aureus ATCC 27660)	Minimum Inhibitory Concentration (MIC) [3]	Minimum Inhibitory Concentration (MIC) (S. pneumoniae ATCC 49619)	Minimum Inhibitory Concentration (MIC) (S. pneumoniae ATCC 51422)	further results
Cn1cc(NC(=O)c2cc(NC(=O)c3cc(NC(=O)c4cc5ccccc5cn4)no3)cn2C)cc1C(=O)NCCN1CCOCC1 [Ib-60]	–	–	–	–	–	–	–	–	–	MIC (B. cereus ATCC 11778): < 4 µg/mL; MIC (C. albicans ATCC 38247): > 32 µg/mL; MIC (E. faecalis ATCC 29212): < 4 µg/mL; MIC (S. aureus ATCC 13709): < 4 µg/mL; MIC (S. pneumoniae ATCC 49619): < 4 µg/mL; Kd [1]: 10 nM; Kd [2]: 5 nM
Cc1cc(NC(=O)c2cc(NC(=O)c3cc(NC(=O)c4cc5ccccc5cn4)cn3C)cn2CCCN(C)C)sn1 [Ib-66]	+++ (+++ = MIC ≦ 4)	+++ (+++ = MIC ≦ 4)	+++ (+++ = MIC ≦ 4)	++ (++ = 4 < MIC < 12)	+++ (+++ = MIC ≦ 4)	+++ (+++ = MIC ≦ 4)	+++ (+++ = MIC ≦ 4)	+++ (+++ = MIC ≦ 4)	+++ (+++ = MIC ≦ 4)	Colony Count (log cfu/gram), Compound [4, 5]: 6.66 log cfu/gram
Cn1cc(NC(=O)c2cc(NC(=O)c3cc(NC(=O)c4cc5ccccc5cn4)cn3C)c[nH]2)cc1C(=O)NCCN1CCOCC1 [Ib-67]	+++ (+++ = MIC ≦ 4)	>32 µg/mL	+++ (+++ = MIC ≦ 4)	–	+++ (+++ = MIC ≦ 4)	+++ (+++ = MIC ≦ 4)	–	+++ (+++ = MIC ≦ 4)	–	Colony Count (log cfu/gram), Compound ([4]; 25 mg/kg intravenously two hours post infection): 6.61 log cfu/gram; Colony Count (log cfu/gram), Compound [4, 5]: 5.79 log cfu/gram
Cn1cc(NC(=O)c2cc3ccccc3cn2)cc1C(=O)Nc1cc(C(=O)Nc2cc(C(=O)NCCN3CCCCC3)n(CCN3CCCCC3)c2)n(C)c1 [Ib-68]	+++ (+++ = MIC ≦ 4)	+ (+ = 12 ≦ MIC ≦ 32)	+++ (+++ = MIC ≦ 4)	–	+++ (+++ = MIC ≦ 4)	+++ (+++ = MIC ≦ 4)	–	+++ (+++ = MIC ≦ 4)	–	Colony Count (log cfu/gram), Compound [4, 5]: 6.36 log cfu/gram
Cn1cc(NC(=O)c2cc(NC(=O)c3cc(NC(=O)c4cc5ccccc5cn4)cn3C)c[nH]2)cc1C(=O)NCCc1ccccn1 [Ib-93]	+++ (+++ = MIC ≦ 4)	>32 µg/mL	+++ (+++ = MIC ≦ 4)	+++ (+++ = MIC ≦ 4)	+++ (+++ = MIC ≦ 4)	+++ (+++ = MIC ≦ 4)	+++ (+++ = MIC ≦ 4)	+++ (+++ = MIC ≦ 4)	+++ (+++ = MIC ≦ 4)	–
Cn1cc(NC(=O)c2ccc(NC(=O)c3cc(NC(=O)c4cc5ccccc5cn4)cn3C)cc2)cc1C(=O)NCCN1CCOCC1 [Ic-1]	–	–	–	–	–	–	–	–	–	MIC (B. cereus ATCC 11778): < 4 µg/mL; MIC (C. albicans ATCC 38247): > 32 µg/mL; MIC (E. faecalis ATCC 29212): < 4 µg/mL; MIC (E. faecium ATCC 51559; Enterococcus faecium, read-out: Minimum Inhibitory Concentration (MIC)): < 4 µg/mL; MIC (S. aureus ATCC 13709): < 4 µg/mL; MIC (S. aureus ATCC 27660; Staphylococcus aureus, read-out: Minimum Inhibitory Concentration (MIC)): < 4 µg/mL; MIC ([3]; Staphylococcus epidermidis, ATCC12228, read-out: Minimum Inhibitory Concentration (MIC)): < 4 µg/mL; MIC (S. pneumoniae ATCC 49619): < 4 µg/mL; MIC (S. pneumoniae ATCC 51422; Streptococcus pneumoniae, read-out: Minimum Inhibitory Concentration (MIC)): < 4 µg/mL
Cn1cc(NC(=O)c2ccc(NC(=O)c3cc(NC(=O)c4cc5ccccc5cn4)cn3C)cc2)cc1C(=O)NCCN1CCC(F)CC1 [Ic-3]	+++ (+++ = MIC ≦ 4)	>32 µg/mL	+++ (+++ = MIC ≦ 4)	+++ (+++ = MIC ≦ 4)	+++ (+++ = MIC ≦ 4)	+++ (+++ = MIC ≦ 4)	+++ (+++ = MIC ≦ 4)	+++ (+++ = MIC ≦ 4)	+++ (+++ = MIC ≦ 4)	–
Cn1cc(NC(=O)c2ccc(NC(=O)c3cc(NC(=O)c4cc5ccccc5cn4)cn3C)cc2)cc1C(=O)NCCN1CCC(F)(F)CC1 [Ic-4]	+++ (+++ = MIC ≦ 4)	>32 µg/mL	+++ (+++ = MIC ≦ 4)	+++ (+++ = MIC ≦ 4)	+++ (+++ = MIC ≦ 4)	+++ (+++ = MIC ≦ 4)	+++ (+++ = MIC ≦ 4)	+++ (+++ = MIC ≦ 4)	+++ (+++ = MIC ≦ 4)	–
Cn1cc(NC(=O)c2ccc(NC(=O)c3cc(NC(=O)c4cc5ccccc5cn4)cn3C)cc2)cc1C(=O)NCCN1CCSCC1 [Ic-7]	+++ (+++ = MIC ≦ 4)	>32 µg/mL	+++ (+++ = MIC ≦ 4)	+++ (+++ = MIC ≦ 4)	+++ (+++ = MIC ≦ 4)	+++ (+++ = MIC ≦ 4)	+++ (+++ = MIC ≦ 4)	+++ (+++ = MIC ≦ 4)	+++ (+++ = MIC ≦ 4)	–
Cn1cc(NC(=O)c2ccc(NC(=O)c3cc(NC(=O)c4cc5ccccc5cn4)cn3C)cc2)cc1C(=O)NCCc1ccccn1 [Ic-12]	>32 µg/mL	>32 µg/mL	+++ (+++ = MIC ≦ 4)	+++ (+++ = MIC ≦ 4)	+++ (+++ = MIC ≦ 4)	+++ (+++ = MIC ≦ 4)	+++ (+++ = MIC ≦ 4)	+++ (+++ = MIC ≦ 4)	+++ (+++ = MIC ≦ 4)	–
Cn1cc(NC(=O)c2ccc(NC(=O)c3cc(NC(=O)c4cc5ccccc5cn4)cn3C)cc2)cc1C(=O)NCCN1CCCCC1 [Ic-13]	+++ (+++ = MIC ≦ 4)	>32 µg/mL	+++ (+++ = MIC ≦ 4)	+++ (+++ = MIC ≦ 4)	+++ (+++ = MIC ≦ 4)	+++ (+++ = MIC ≦ 4)	+++ (+++ = MIC ≦ 4)	+++ (+++ = MIC ≦ 4)	+++ (+++ = MIC ≦ 4)	–
